Like-named read-outs stand apart in the source and are kept apart here.
Assays:
Huh7 cells = assay: MTT cell proliferation/viability assay, Huh7; format: cell-based, human; details: Huh7 vs U2OS, 72 h
Protocol: MPPs were tested for effects on cell proliferation and viability using MTT (3‐(4,5‐dimethylthiazol‐2‐yl)‐2,5‐diphenyltetrazolium bromide) dye conversion assay (Cell Titer 96, Promega) as we described[22] with some modifications. Cells were plated into 96 well plates and allowed to attach overnight. MPPs were added to the cultures and then incubated for the times indicated. At assay time, MTT reagent was added and absorbance measured at 570 nm. Controls included buffer blanks containing MPP because of background absorbances reported for MPPs by us[22] and others.[23] The formula used for determination of viable cells relative to controls was: %viablecells=(abssample‐absblank)/(absconrtrol‐absblank)×100

[1] = system: TERT, β-catenin, and cyclin D1 expression; assay: Western blot of proliferative proteins in Huh7 cells; format: cell-based, human; details: Huh7, 48 h
Protocol: For SDS ‐PAGE, cellular lysates, and protein preparations such as IP were dissolved in Laemmli buffer, boiled for 1 min and separated on denaturing SDS gels as described.[28] After electrophoretic transfer of separated proteins to nitrocellulose sheets, western blot immunoassays employed enhanced chemiluminescence for signal detection (ECL^TM Prime, Amersham).[28]

Taq DNA polymerase = biological target: T1, Taq DNA polymerase (Thermus aquaticus, UniProt P19821); assay: Taq polymerase inhibition test, MPP added after the telomerase extension step of TRAP; format: biochemical
T1 construct: purchased Perkin‐Elmer Cetus, Norwalk, CT
T1 sequence (P19821 whole entry): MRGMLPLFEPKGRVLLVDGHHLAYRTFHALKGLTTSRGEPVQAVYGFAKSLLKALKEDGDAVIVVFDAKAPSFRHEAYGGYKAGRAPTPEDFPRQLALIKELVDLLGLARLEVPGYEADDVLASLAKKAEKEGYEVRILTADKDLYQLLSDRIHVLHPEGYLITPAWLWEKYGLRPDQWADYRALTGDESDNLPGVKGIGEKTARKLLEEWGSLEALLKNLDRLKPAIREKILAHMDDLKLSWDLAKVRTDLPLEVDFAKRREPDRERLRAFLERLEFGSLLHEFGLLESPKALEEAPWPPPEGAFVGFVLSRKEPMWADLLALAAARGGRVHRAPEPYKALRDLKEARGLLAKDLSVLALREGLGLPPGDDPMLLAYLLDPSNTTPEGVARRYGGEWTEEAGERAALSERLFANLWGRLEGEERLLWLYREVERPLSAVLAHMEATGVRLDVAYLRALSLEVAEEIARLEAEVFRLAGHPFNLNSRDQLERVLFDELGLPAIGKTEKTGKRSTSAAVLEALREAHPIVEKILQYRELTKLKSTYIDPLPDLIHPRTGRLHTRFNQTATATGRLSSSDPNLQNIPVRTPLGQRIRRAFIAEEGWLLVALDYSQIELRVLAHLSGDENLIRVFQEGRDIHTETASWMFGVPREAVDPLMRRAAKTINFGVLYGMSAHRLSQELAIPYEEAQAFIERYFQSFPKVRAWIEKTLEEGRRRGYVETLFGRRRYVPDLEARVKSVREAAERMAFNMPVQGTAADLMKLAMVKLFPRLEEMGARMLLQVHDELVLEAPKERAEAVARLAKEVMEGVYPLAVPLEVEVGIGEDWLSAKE
Protocol: (§1) For TRAP assay, a Quantitative Telomerase Detection Kit (US Biomax, Inc) was used to assay cellular lysates or TERT immunoprecipitates (IP) according to the manufacturer's directions. Relative telomerase activity was derived from a standard curve of reference samples and data were analyzed using relative fluorescence units as compared to controls. In some cases, telomerase reaction products were visualized and quantified with TRAPeze system (EMD/Millipore). After separation of the DNA products using 10% non‐denaturing PAGE and SYBR fluorescence labeling [1x SYBR safe DNA gel stain (Invitrogen)], gel bands were imaged with iBright 1500 (Invitrogen). The intensity of the sample's TRAP ladder and internal control was first measured using GelAnalyzer [GelAnalyzer 19.1 (www.gelanalyzer.com )] as recommended. Then, the relative telomerase activity was determined by the ratio of the intensity of the sample's TRAP ladder (telomerase products, TP) to that of the internal control (IC) band.
Because of concerns that some quadruplex ligands inhibit Taq DNA polymerase in addition to telomerase, we assayed MPP inhibition at both steps of the TRAP procedure with a strategy similar to that of others.[36] Using equivalent extracts but separate assays, MPP was either included in the telomerase RT extension step or the extension step was conducted without MPP and then MPP added only for the amplification steps with Taq DNA polymerase. To avoid further potential errors introduced by Real‐time quantification, TRAP products were labeled with SYBR green, visualized on denaturing gels, and each lane was quantified by density measurements as described in the Methods. The latter step also ruled out the possibility that decreases in activity were artifactual due to fluorescence signal quenching by some MPPs.[37] […] All three MPPs had minimal effects on Taq polymerase […] and the slight inhibition of Taq polymerase seen for ZnPP was not directly concentration‐dependent.
Enzymatic extracts were prepared from semi-confluent Huh7 cells and aliquots were assayed in triplicate using TRAP assay. CoPP was added to RT-PCR reactions either before or after the RT telomere elongation step to test whether it inhibited Taq polymerase. Visualization of amplified telomeric products was on 12% denaturing gels using SYBR fluorescence labelling (upper panels). Quantification was with densitometry as described in Methods and plot shown (lower panel). Plotted points represent the mean +/- SD with n =3. (IC)= internal Taq polymerase control.

telomerase [2] = biological target: T2, telomerase (Homo sapiens, UniProt O14746); assay: Direct α-32P-dGTP telomerase extension assay, IP eluates of HEK-293T cells overexpressing TERT, TERC and dyskerin; format: biochemical; set-up: purchased Abbexa Ltd (UK) Abx069991; host or cells: HEK-293T cells overexpressing TERT, TERC and dyskerin; details: Table 2b; mean of 2–4 experiments
Protocol: For direct telomerase activity assay, a modified procedure of Tomlinson et al[26] was used. Briefly, HEK‐293T cell pellet from 10^7 cells overexpressing TERT, TERC, and dyskerin was obtained from Abbexa Ltd (UK. Abx069991). The whole‐cell lysate was produced using 1ml buffer A [20 mM HEPES‐KOH buffer (pH 8), 300 mM KCl, 2 mM MgCl2, 0.1% v/v Triton X‐100, 10% v/v glycerol]. Immunoprecipitation of telomerase was performed with anti‐hTERT polyclonal sheep antibody (abx120550, Abbexa, U.K.). The telomerase was finally eluted with hTERT peptide (abx069990, Abbexa, U.K.). 10µl of eluates were mixed with different concentrations of MPP and incubated on ice for 2 h. Then the pellet‐MPP complex was added to the extension reaction mixture composed of 1x telomerase buffer, 300 mM KCl, 1 µM Bio‐L‐18GGG, 1 mM dATP, 1 mM dTTP, 10 µM dGTP, 20 µCi α‐^32P‐dGTP, 10 mM DTT, 5’ biotinylated DNA substrate (5’‐CTAGACCTGTCATCA(TTAGGG)3‐3’) and 10% glycerol. The reaction was conducted at 37 °C for 2 h. The purification of telomerase extension products employed Dynabeads M‐280 streptavidin. Five microliters of purified products were loaded on 6% sequencing gel (TBE‐UREA denaturing gel) with Model S2 Sequencing Gel Electrophoresis Apparatus (LabRepCo, Horsham, PA). […] This screen was then scanned using a STORM phosphorimager (Molecular Dynamics), and bands were quantified using GelAnalyzer as described above. […]
Target sequence in this assay (O14746 whole entry): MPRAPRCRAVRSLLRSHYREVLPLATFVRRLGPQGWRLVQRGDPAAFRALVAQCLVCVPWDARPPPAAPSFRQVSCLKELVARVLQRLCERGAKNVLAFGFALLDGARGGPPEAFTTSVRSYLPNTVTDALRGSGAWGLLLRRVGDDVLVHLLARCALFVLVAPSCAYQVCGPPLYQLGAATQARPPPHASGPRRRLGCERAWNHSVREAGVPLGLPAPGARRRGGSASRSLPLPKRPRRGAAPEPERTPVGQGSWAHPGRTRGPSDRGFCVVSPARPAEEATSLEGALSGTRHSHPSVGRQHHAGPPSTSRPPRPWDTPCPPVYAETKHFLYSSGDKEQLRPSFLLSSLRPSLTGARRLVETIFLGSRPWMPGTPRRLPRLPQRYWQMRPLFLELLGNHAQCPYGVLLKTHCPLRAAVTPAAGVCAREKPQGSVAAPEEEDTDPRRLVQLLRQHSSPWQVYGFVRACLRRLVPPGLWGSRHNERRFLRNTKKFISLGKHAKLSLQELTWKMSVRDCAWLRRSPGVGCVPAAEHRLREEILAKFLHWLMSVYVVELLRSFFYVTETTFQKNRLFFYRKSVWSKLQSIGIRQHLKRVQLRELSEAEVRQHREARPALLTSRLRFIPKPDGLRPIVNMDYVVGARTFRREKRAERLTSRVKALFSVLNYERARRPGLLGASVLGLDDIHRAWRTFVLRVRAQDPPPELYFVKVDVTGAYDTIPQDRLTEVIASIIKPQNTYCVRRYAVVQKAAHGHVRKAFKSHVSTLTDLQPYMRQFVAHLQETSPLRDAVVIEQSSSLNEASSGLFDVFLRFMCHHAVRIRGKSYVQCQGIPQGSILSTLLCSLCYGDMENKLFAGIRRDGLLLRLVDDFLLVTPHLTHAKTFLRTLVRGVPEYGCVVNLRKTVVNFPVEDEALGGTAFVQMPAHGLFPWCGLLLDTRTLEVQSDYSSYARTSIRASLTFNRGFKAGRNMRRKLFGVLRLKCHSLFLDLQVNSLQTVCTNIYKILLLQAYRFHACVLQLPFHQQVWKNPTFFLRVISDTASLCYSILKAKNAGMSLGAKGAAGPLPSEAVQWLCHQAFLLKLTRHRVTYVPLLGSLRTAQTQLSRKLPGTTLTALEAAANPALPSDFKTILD
Target sequence in this assay (O60832 whole entry partner): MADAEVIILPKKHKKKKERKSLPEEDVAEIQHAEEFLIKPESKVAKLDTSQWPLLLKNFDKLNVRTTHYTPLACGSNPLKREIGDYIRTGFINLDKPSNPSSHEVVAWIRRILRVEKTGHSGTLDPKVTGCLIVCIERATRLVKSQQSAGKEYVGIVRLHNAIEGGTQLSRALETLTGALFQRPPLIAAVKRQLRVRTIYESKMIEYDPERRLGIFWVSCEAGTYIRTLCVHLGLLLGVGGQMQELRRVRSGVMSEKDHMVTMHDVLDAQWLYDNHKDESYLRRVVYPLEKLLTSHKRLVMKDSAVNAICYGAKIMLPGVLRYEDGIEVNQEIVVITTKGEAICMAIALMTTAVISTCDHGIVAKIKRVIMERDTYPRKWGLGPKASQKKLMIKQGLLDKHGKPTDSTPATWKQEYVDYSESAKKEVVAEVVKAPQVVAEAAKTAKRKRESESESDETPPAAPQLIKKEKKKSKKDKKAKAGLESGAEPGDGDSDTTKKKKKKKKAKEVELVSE
Target sequence in this assay (Q9NPE3 whole entry partner): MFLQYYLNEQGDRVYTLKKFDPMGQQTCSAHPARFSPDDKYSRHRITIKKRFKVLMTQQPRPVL
Target sequence in this assay (Q9NX24 whole entry partner): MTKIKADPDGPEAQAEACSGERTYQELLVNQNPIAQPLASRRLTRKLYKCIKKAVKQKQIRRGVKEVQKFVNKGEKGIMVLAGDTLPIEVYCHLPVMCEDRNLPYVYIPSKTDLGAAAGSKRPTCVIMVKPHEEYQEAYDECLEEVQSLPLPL
Target sequence in this assay (Q9NY12 whole entry partner): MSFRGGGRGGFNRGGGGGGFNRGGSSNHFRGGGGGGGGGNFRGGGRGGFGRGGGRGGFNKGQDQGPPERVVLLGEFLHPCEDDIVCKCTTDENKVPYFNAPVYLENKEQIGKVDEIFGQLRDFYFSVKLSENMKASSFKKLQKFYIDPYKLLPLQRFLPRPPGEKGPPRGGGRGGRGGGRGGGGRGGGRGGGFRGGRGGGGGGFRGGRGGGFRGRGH

[3] = biological target: T3, telomerase activity in Hek293 cells (Homo sapiens, UniProt O14746); assay: Telomerase activity by TRAP after incubation of intact Hek293 cells with MPP; format: cell-based
T3 construct: Log phase Huh7, Hek293 and Huh5.15 HCV replicon cells; endogenous in cells; host or cells: Hek293 (wild type)
T3 sequence (O14746 whole entry): as the sequence (O14746 whole entry) above
T3 sequence (O60832 whole entry partner): as the sequence (O60832 whole entry partner) above
T3 sequence (Q9NPE3 whole entry partner): as the sequence (Q9NPE3 whole entry partner) above
T3 sequence (Q9NX24 whole entry partner): as the sequence (Q9NX24 whole entry partner) above
T3 sequence (Q9NY12 whole entry partner): as the sequence (Q9NY12 whole entry partner) above
T3 sequence (Q9BUR4 whole entry partner): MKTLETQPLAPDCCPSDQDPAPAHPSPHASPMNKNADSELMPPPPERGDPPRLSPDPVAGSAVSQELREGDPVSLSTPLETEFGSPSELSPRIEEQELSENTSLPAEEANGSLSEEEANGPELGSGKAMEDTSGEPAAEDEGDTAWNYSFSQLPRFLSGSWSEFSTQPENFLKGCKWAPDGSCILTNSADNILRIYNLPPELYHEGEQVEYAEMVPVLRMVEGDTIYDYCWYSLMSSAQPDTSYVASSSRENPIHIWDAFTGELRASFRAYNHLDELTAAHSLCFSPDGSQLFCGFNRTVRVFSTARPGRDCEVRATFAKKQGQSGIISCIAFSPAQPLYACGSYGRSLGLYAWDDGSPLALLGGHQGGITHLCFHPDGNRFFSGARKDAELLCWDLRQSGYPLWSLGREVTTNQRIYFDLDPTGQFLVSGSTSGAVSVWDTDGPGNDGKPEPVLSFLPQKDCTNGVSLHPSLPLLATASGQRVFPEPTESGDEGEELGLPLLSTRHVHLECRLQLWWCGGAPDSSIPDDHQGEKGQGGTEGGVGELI
Protocol: (§2) Telomerase reverse transcriptase (TERT) enzymatic activity was determined using Telomeric Repeat Amplification Protocol (TRAP) with Real‐time quantification as described previously,[25] or measured directly using α‐^32P‐dGTP incorporation as described[26] with modifications as below.
as §1
(§3) The EC50 was the extracellular concentration of MPP inhibitor calculated to result in 50% reduction of cellular telomerase activity after incubation in whole cells. Similarly, IC50 was the concentration of MPP inhibitor necessary to inhibit 50% of telomerase enzyme activity in vitro in cellular lysates. Both were calculated using GraphPad as directed and verified graphically on plots of enzyme activity vs inhibitor concentration.

[4] = biological target: T4, telomerase activity in Huh7 cells (Homo sapiens, UniProt O14746); assay: Telomerase activity by TRAP after incubation of intact Huh7 cells with MPP; format: cell-based
T4 construct: Enzymatic extracts were prepared from semi‐confluent phase Huh7 cells and aliquots were assayed in triplicate using TRAP assay; endogenous in cells; host or cells: Huh7
T4 sequence (O14746 whole entry): as the sequence (O14746 whole entry) above
T4 sequence (O60832 whole entry partner): as the sequence (O60832 whole entry partner) above
T4 sequence (Q9NPE3 whole entry partner): as the sequence (Q9NPE3 whole entry partner) above
T4 sequence (Q9NX24 whole entry partner): as the sequence (Q9NX24 whole entry partner) above
T4 sequence (Q9NY12 whole entry partner): as the sequence (Q9NY12 whole entry partner) above
T4 sequence (Q9BUR4 whole entry partner): as the sequence (Q9BUR4 whole entry partner) above
Protocol: as §2, §1, §3

telomerase [5] = biological target: T2, telomerase; assay: TRAP (TRAPeze) telomerase activity assay in Huh7 cellular lysates/enzymatic extracts; format: biochemical; set-up: Enzymatic extracts were prepared from semi‐confluent phase Huh7 cells and aliquots were assayed in triplicate using TRAP assay; endogenous in cells; host or cells: Huh7
Protocol: as §2, §1, §3
Target sequence in this assay (O14746 whole entry): as the sequence (O14746 whole entry) above
Target sequence in this assay (O60832 whole entry partner): as the sequence (O60832 whole entry partner) above
Target sequence in this assay (Q9NPE3 whole entry partner): as the sequence (Q9NPE3 whole entry partner) above
Target sequence in this assay (Q9NX24 whole entry partner): as the sequence (Q9NX24 whole entry partner) above
Target sequence in this assay (Q9NY12 whole entry partner): as the sequence (Q9NY12 whole entry partner) above
Target sequence in this assay (Q9BUR4 whole entry partner): as the sequence (Q9BUR4 whole entry partner) above

[6] = system: high molecular weight complexes containing telomerase; assay: Fluorescent labelling of cellular lysate complexes on non-denaturing 0.8% agarose gels; format: binding, human; details: Huh7 lysates, fluorescence visualization
Protocol: 0.8% Agarose gels were run in Tris‐Borate‐EDTA buffer using standard slab gels as described for high molecular weight complexes.[27] Cell lysates were produced by lysing Hek293 and Huh7 cells in NP40 buffer (25 mM HEPES‐KOH, 150 mM KCl, 1.5mM MgCl2, 10% glycerol, 0.5% NP40, 5 mM 2ME, pH 7.5 supplemented with protease inhibitors) for 30 min on ice. Extracts were clarified by centrifugation for 16 000 g for 10 min. The protein concentration was determined by Bradford assay. The indicated amounts of proteins were treated with different amounts of ZnPP for 2 h on ice, and then separated on 0.8% Agarose gels prepared with 0.5xTris‐Borate‐EDTA (TBE) buffer. The gels were run at 100 V for 2 h at 4 °C in 0.5x TBE buffer. […] No antibody and normal rabbit IgG (sc‐2027, Santa Cruz Biotechnology) were included as controls. The IP products were treated with ZnPP and electrophoresed as above. Free ZnPP and ZnPP bound to large complexes were visualized using a wide‐wavelength UV lightbox or with red fluorescence using excitation (EX) 608–632 nm and emission (EM) 675–720 nm. Thyroglobulin (670 kD), a heavy MW marker, was run in parallel lanes and visualized with Coomassie Blue staining or fluorescence to size the complexes. In some cases, cell lysates or IP were incubated with RNase A (Life Technologies, NY); or DNase 1 (Qiagen, CA) 100 µg/ml for 1 h at 4 °C prior to electrophoresis.

[7] = TRAP, MPP added for the amplification steps only
[8] = Figure 3A middle panel, 48 h, read-out: EC50 of telomerase activity in cultured Hek293 cells
[9] = Table 2d, mean of 2–4 experiments, 48 h incubation, read-out: EC50, intact Hek293 cells [TRAP]
[10] = Figure 3A upper panel, 48 h, read-out: EC50 of telomerase activity in cultured Huh7 cells
[11] = Table 2c, mean of 2–4 experiments, 48 h incubation, read-out: EC50, intact Huh7 cells [TRAP]
[12] = Table 2a, mean of 2–4 experiments, 6 inhibitor concentrations 0–20 µM, read-out: IC50, cellular lysates [Trapeze]
[13] = individual experiment, Figure 3B-D, gel densitometry, read-out: IC50 of telomerase activity, TRAP in Huh7 extracts

Row | SMILES | Effect on proliferation, telomerase-expressing vs telomerase negative line (Huh7 cells) | Effect on expression of TERT, β-catenin and cyclin D1 (western blot) [1] | Effect on Taq polymerase (Taq DNA polymerase; [7]) | Effect on Taq polymerase (Taq DNA polymerase; concentrations of 5-10 µM, Figure S2) | IC50 (telomerase [2]) [µM] | EC50 [3, 8] [µM] | EC50 [3, 9] [µM] | EC50 [4, 10] [µM] | EC50 [4, 11] [µM] | IC50 (telomerase [5]; [12]) [µM] | IC50 (telomerase [5]; [13]) [µM] | Labelling/binding of cellular complexes on agarose gels [6]
1 | C/C(=C\C(=O)Nc1ccccc1C(=O)O)c1ccc2ccccc2c1 [BIBR, reference compound] | greater propensity to decrease proliferation |  |  |  |  |  |  |  |  |  |  | 
2 | C=CC1=C(C)c2cc3[n-]c(cc4nc(cc5[n-]c(cc1n2)c(C)c5CCC(=O)[O-])C(CCC(=O)[O-])=C4C)c(C)c3C=C.[Co+2].[H+].[H+] [CoPP, cobalt protoporphyrin] |  | failed to significantly alter | clearly inhibited Taq polymerase | potent antagonist |  |  |  |  |  |  |  | 
3 | C=CC1=C(C)c2cc3[n-]c(cc4[n-]c(cc5nc(cc1n2)C(C)=C5C=C)c(C)c4CCC(=O)O)c(CCC(=O)O)c3C.[Fe+2] [FePP, iron protoporphyrin (heme)] |  | failed to significantly alter | minimal inhibition |  | 18.3 | > 10 | > 20 | > 10 | > 20 | > 20 | > 10 | 
4 | C=Cc1c2[n-]c(c1C)/C=c1\[n-]/c(c(C)c1C=C)=C\c1[n-]c(c(CCC(=O)O)c1C)/C=c1\[n-]c(c(C)c1CCC(=O)O)=C2.[Sn+4] [SnPP, tin protoporphyrin] |  | failed to significantly alter | minimal inhibition |  | > 20 | > 10 | > 20 | > 10 | 10.8 | 12 | > 10 | did not label a discernable cellular complex
